# Results from paper PMC5515969, “Effects of 31 FDA approved small-molecule kinase inhibitors on isolated rat liver mitochondria” (Archives of Toxicology, 2016).
# Test system: not given
# Assay: not given
# Details: human therapeutic Cmax at FDA recommended dosages; ref product labeling and drug approval packages at the official FDA website; cited from earlier work
row,SMILES,Cmax
1,COC(=O)c1ccc2c(c1)NC(=O)/C2=C(\Nc1ccc(N(C)C(=O)CN2CCN(C)CC2)cc1)c1ccccc1 [Nintedanib],0.06 µM

# Same assay, conditions: human therapeutic maximal blood concentration; ref product labeling; cited from earlier work
row,SMILES,Cmax (ng or µg/ml)
1,COC(=O)c1ccc2c(c1)NC(=O)/C2=C(\Nc1ccc(N(C)C(=O)CN2CCN(C)CC2)cc1)c1ccccc1 [Nintedanib],0.0349 µg/mL
2,CN(C)C/C=C/C(=O)Nc1cc2c(Nc3ccc(F)c(Cl)c3)ncnc2cc1O[C@H]1CCOC1 [afatinib dimaleate],0.0252 µg/mL

# Same assay, conditions: read-out: Cmax at µM; human therapeutic maximal blood concentration; ref product labeling; cited from earlier work
row,SMILES,Cmax
1,O=C(c1ccc(F)c(F)c1Nc1ccc(I)cc1F)N1CC(O)([C@@H]2CCCCN2)C1 [Cobimetinib],0.51 µM
2,COC(=O)c1ccc2c(c1)NC(=O)/C2=C(\Nc1ccc(N(C)C(=O)CN2CCN(C)CC2)cc1)c1ccccc1 [Nintedanib],0.06 µM
3,CC(=O)Nc1cccc(-n2c(=O)n(C3CC3)c(=O)c3c(Nc4ccc(I)cc4F)n(C)c(=O)c(C)c32)c1 [Trametinib],0.04 µM
4,CN(C)C/C=C/C(=O)Nc1cc2c(Nc3ccc(F)c(Cl)c3)ncnc2cc1O[C@H]1CCOC1 [afatinib dimaleate],0.04 µM

# Test system: not given
# Assay: not given
# Details: BBW: black box warning; W&P: Warnings and Precautions; ref product labeling; cited from earlier work
row,SMILES,Labeling for cardiotoxicity
1,O=C(c1ccc(F)c(F)c1Nc1ccc(I)cc1F)N1CC(O)([C@@H]2CCCCN2)C1 [Cobimetinib],W&P: Cardiomyopathy
2,CC(=O)Nc1cccc(-n2c(=O)n(C3CC3)c(=O)c3c(Nc4ccc(I)cc4F)n(C)c(=O)c(C)c32)c1 [Trametinib],W&P: Cardiomyopathy

# Same assay, conditions: ref product labeling; cited from earlier work
row,SMILES,Potential for cardiotoxicity (based on labeling)
1,O=C(c1ccc(F)c(F)c1Nc1ccc(I)cc1F)N1CC(O)([C@@H]2CCCCN2)C1 [Cobimetinib],1
2,COC(=O)c1ccc2c(c1)NC(=O)/C2=C(\Nc1ccc(N(C)C(=O)CN2CCN(C)CC2)cc1)c1ccccc1 [Nintedanib],0
3,CC(=O)Nc1cccc(-n2c(=O)n(C3CC3)c(=O)c3c(Nc4ccc(I)cc4F)n(C)c(=O)c(C)c32)c1 [Trametinib],1
4,CN(C)C/C=C/C(=O)Nc1cc2c(Nc3ccc(F)c(Cl)c3)ncnc2cc1O[C@H]1CCOC1 [afatinib dimaleate],0

# Test system: RCC I
# Assay: RCC I activity in submitochondrial particles
# Type: biochemical, rat
# Design: key to RCC I at 10XCmax / RCC I at 100XCmax / RCC I at 50XCmax / RCC I at 30XCmax / RCC I at 20XCmax: activity relative to DMSO-treated controls (control set as 1 = 100%)
# Details: 10XCmax; DMSO treated samples set as 1
# In short: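 Abs 340 nm (I/V) or 600 nm (II), 1-min reads × 6 min; 550 nm (III, IV), 10-s reads × 2 min. RCC I = rotenone-free minus rotenone rate. DMSO control = 1.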
row,SMILES,RCC I at 10XCmax
1,O=C(c1ccc(F)c(F)c1Nc1ccc(I)cc1F)N1CC(O)([C@@H]2CCCCN2)C1 [Cobimetinib],0
2,COC(=O)c1ccc2c(c1)NC(=O)/C2=C(\Nc1ccc(N(C)C(=O)CN2CCN(C)CC2)cc1)c1ccccc1 [Nintedanib],0
3,CC(=O)Nc1cccc(-n2c(=O)n(C3CC3)c(=O)c3c(Nc4ccc(I)cc4F)n(C)c(=O)c(C)c32)c1 [Trametinib],0
4,CN(C)C/C=C/C(=O)Nc1cc2c(Nc3ccc(F)c(Cl)c3)ncnc2cc1O[C@H]1CCOC1 [afatinib dimaleate],0

# Test system: isolated rat liver mitochondria
# Assay: Mitochondrial swelling (absorbance at 535 nm); for Swelling 5XCmax: key: 0 indicates that the drug had no effects (negative)
# Type: biochemical
# Details: 1XCmax; difference in signal between KI and DMSO treated samples at the end of experiments
row,SMILES,Swelling 1XCmax
1,O=C(c1ccc(F)c(F)c1Nc1ccc(I)cc1F)N1CC(O)([C@@H]2CCCCN2)C1 [Cobimetinib],0
2,COC(=O)c1ccc2c(c1)NC(=O)/C2=C(\Nc1ccc(N(C)C(=O)CN2CCN(C)CC2)cc1)c1ccccc1 [Nintedanib],0
3,CC(=O)Nc1cccc(-n2c(=O)n(C3CC3)c(=O)c3c(Nc4ccc(I)cc4F)n(C)c(=O)c(C)c32)c1 [Trametinib],0
4,CN(C)C/C=C/C(=O)Nc1cc2c(Nc3ccc(F)c(Cl)c3)ncnc2cc1O[C@H]1CCOC1 [afatinib dimaleate],0

# Same assay, conditions: 2.5XCmax; difference in signal between KI and DMSO treated samples at the end of experiments
row,SMILES,Swelling 2.5XCmax
1,O=C(c1ccc(F)c(F)c1Nc1ccc(I)cc1F)N1CC(O)([C@@H]2CCCCN2)C1 [Cobimetinib],0
2,COC(=O)c1ccc2c(c1)NC(=O)/C2=C(\Nc1ccc(N(C)C(=O)CN2CCN(C)CC2)cc1)c1ccccc1 [Nintedanib],0
3,CC(=O)Nc1cccc(-n2c(=O)n(C3CC3)c(=O)c3c(Nc4ccc(I)cc4F)n(C)c(=O)c(C)c32)c1 [Trametinib],0
4,CN(C)C/C=C/C(=O)Nc1cc2c(Nc3ccc(F)c(Cl)c3)ncnc2cc1O[C@H]1CCOC1 [afatinib dimaleate],0

# Same assay, conditions: 5XCmax; difference in signal between KI and DMSO treated samples at the end of experiments
row,SMILES,Swelling 5XCmax
1,O=C(c1ccc(F)c(F)c1Nc1ccc(I)cc1F)N1CC(O)([C@@H]2CCCCN2)C1 [Cobimetinib],0
2,COC(=O)c1ccc2c(c1)NC(=O)/C2=C(\Nc1ccc(N(C)C(=O)CN2CCN(C)CC2)cc1)c1ccccc1 [Nintedanib],0
3,CC(=O)Nc1cccc(-n2c(=O)n(C3CC3)c(=O)c3c(Nc4ccc(I)cc4F)n(C)c(=O)c(C)c32)c1 [Trametinib],0
4,CN(C)C/C=C/C(=O)Nc1cc2c(Nc3ccc(F)c(Cl)c3)ncnc2cc1O[C@H]1CCOC1 [afatinib dimaleate],0

# Same assay, conditions: 10XCmax; difference in signal between KI and DMSO treated samples at the end of experiments
row,SMILES,Swelling 10XCmax
1,O=C(c1ccc(F)c(F)c1Nc1ccc(I)cc1F)N1CC(O)([C@@H]2CCCCN2)C1 [Cobimetinib],0
2,COC(=O)c1ccc2c(c1)NC(=O)/C2=C(\Nc1ccc(N(C)C(=O)CN2CCN(C)CC2)cc1)c1ccccc1 [Nintedanib],0
3,CC(=O)Nc1cccc(-n2c(=O)n(C3CC3)c(=O)c3c(Nc4ccc(I)cc4F)n(C)c(=O)c(C)c32)c1 [Trametinib],0
4,CN(C)C/C=C/C(=O)Nc1cc2c(Nc3ccc(F)c(Cl)c3)ncnc2cc1O[C@H]1CCOC1 [afatinib dimaleate],0

# Same assay, conditions: 20XCmax; difference in signal between KI and DMSO treated samples at the end of experiments
row,SMILES,Swelling 20XCmax
1,O=C(c1ccc(F)c(F)c1Nc1ccc(I)cc1F)N1CC(O)([C@@H]2CCCCN2)C1 [Cobimetinib],0
2,COC(=O)c1ccc2c(c1)NC(=O)/C2=C(\Nc1ccc(N(C)C(=O)CN2CCN(C)CC2)cc1)c1ccccc1 [Nintedanib],0
3,CC(=O)Nc1cccc(-n2c(=O)n(C3CC3)c(=O)c3c(Nc4ccc(I)cc4F)n(C)c(=O)c(C)c32)c1 [Trametinib],0
4,CN(C)C/C=C/C(=O)Nc1cc2c(Nc3ccc(F)c(Cl)c3)ncnc2cc1O[C@H]1CCOC1 [afatinib dimaleate],0

# Same assay, conditions: 30XCmax; difference in signal between KI and DMSO treated samples at the end of experiments
row,SMILES,Swelling 30XCmax
1,O=C(c1ccc(F)c(F)c1Nc1ccc(I)cc1F)N1CC(O)([C@@H]2CCCCN2)C1 [Cobimetinib],0
2,COC(=O)c1ccc2c(c1)NC(=O)/C2=C(\Nc1ccc(N(C)C(=O)CN2CCN(C)CC2)cc1)c1ccccc1 [Nintedanib],0
3,CC(=O)Nc1cccc(-n2c(=O)n(C3CC3)c(=O)c3c(Nc4ccc(I)cc4F)n(C)c(=O)c(C)c32)c1 [Trametinib],0
4,CN(C)C/C=C/C(=O)Nc1cc2c(Nc3ccc(F)c(Cl)c3)ncnc2cc1O[C@H]1CCOC1 [afatinib dimaleate],0

# Same assay, conditions: 50XCmax; difference in signal between KI and DMSO treated samples at the end of experiments
row,SMILES,Swelling 50XCmax
1,O=C(c1ccc(F)c(F)c1Nc1ccc(I)cc1F)N1CC(O)([C@@H]2CCCCN2)C1 [Cobimetinib],0
2,COC(=O)c1ccc2c(c1)NC(=O)/C2=C(\Nc1ccc(N(C)C(=O)CN2CCN(C)CC2)cc1)c1ccccc1 [Nintedanib],0
3,CC(=O)Nc1cccc(-n2c(=O)n(C3CC3)c(=O)c3c(Nc4ccc(I)cc4F)n(C)c(=O)c(C)c32)c1 [Trametinib],0
4,CN(C)C/C=C/C(=O)Nc1cc2c(Nc3ccc(F)c(Cl)c3)ncnc2cc1O[C@H]1CCOC1 [afatinib dimaleate],0

# Same assay, conditions: 100XCmax; difference in signal between KI and DMSO treated samples at the end of experiments
row,SMILES,Swelling 100XCmax
1,O=C(c1ccc(F)c(F)c1Nc1ccc(I)cc1F)N1CC(O)([C@@H]2CCCCN2)C1 [Cobimetinib],0
2,COC(=O)c1ccc2c(c1)NC(=O)/C2=C(\Nc1ccc(N(C)C(=O)CN2CCN(C)CC2)cc1)c1ccccc1 [Nintedanib],0
3,CC(=O)Nc1cccc(-n2c(=O)n(C3CC3)c(=O)c3c(Nc4ccc(I)cc4F)n(C)c(=O)c(C)c32)c1 [Trametinib],0
4,CN(C)C/C=C/C(=O)Nc1cc2c(Nc3ccc(F)c(Cl)c3)ncnc2cc1O[C@H]1CCOC1 [afatinib dimaleate],0
